In patent US10738041B2, “Ferroportin inhibitors” (Vifor (International) AG, priority 2015, dated 2020):

Columns and labels:
ferroportin (Fpn) = biological target: T1, ferroportin (Fpn) (Mus musculus, UniProt Q9JHI9); experiment: Ferroportin Ubiquitination and Degradation (immunoprecipitation, Western blot); type: cell-based; design: key: + comparable to hepcidin; − no effect; +/− intermediate effect; settings: J774 cells; visual inspection of Western blots; concentration per compound ca. 10-fold J774 IC50
T1 construct: host or cells: J774 mouse macrophage cell line, Fe(III)-NTA induced
T1 sequence (Q9JHI9 1-570): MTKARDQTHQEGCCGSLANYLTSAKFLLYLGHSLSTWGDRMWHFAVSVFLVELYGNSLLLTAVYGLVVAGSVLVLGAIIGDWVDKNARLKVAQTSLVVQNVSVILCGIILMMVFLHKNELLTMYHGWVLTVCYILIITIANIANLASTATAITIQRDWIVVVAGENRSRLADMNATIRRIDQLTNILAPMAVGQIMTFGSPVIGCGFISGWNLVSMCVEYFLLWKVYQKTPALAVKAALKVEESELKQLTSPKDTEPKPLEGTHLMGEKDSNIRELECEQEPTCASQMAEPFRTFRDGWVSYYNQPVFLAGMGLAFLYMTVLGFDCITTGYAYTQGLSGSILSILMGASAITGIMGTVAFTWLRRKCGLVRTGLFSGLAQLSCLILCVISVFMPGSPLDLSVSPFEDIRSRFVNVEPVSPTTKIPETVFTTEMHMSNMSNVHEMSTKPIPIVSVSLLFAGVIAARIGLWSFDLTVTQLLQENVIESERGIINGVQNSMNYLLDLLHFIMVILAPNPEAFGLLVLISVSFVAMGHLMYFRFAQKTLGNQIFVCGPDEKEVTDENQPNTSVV
Experimental: Exposure of cells expressing ferroportin (Fpn) to hepcidin is known to trigger ubiquitination aid subsequent internalization and degradation of Fpn (Qiao, 2012). The potential of Fpn inhibitors to induce Fpn ubiquitination and degradation was investigated with an immunoprecipitation assay using the J774 mouse macrophage cell line which expresses Fpn upon treatment with iron.
Cells were incubated with synthetic human hepcidin (Bachem, Cat. H-5926) or Fpn inhibitor compounds for 10 min or 120 min. Cells were washed and lysed witi ice-cold lysis buffer (Pierce, Life Technoligies, Cat. 87787) including 1× HALT protease inhibitor cocktail (Life technologies, Cat. 78429) and 10 mM iodoacetamide (Sigma, Cat. 16125) to stabilize ubiquitinated proteins. Immunoprecipitation was done using the Pierce Classic IP Kit (Life Technologies, Cat. 26146) following the manufacturer's protocol. Briefly, 2 mg protein in 1.25 ml IP lysis buffer was incubated by mixing for 1 h at 4° C. with control agarose beads to pre-clear the lysate and reduce nonspecific signal. Unbound lysate was then incubated overnight with 12 μg per reaction of the affinity purified anti-Fpn antibody F308 that was raised against a GST fusion protein of mouse Fpn amino acids 224308. Immune complexes were captured by pipetting 14 μl settled Pierce Protein A/G Plus Agarose beads (Life Technologies, Cat. 20423) per reaction and the slurry was incubated for 1.5 h at 4° C. with gentle end-over-end mixing. The beads were washed and immune complexes were eluted directly with 75 μl SDS NuPAGE LDS sample buffer (Life Technologies, Cat. NP0007) containing DTT (Life Technologies, Cat. NP0009). After immunoprecipitation samples were analyzed by Western blotting using a rabbit anti-mouse MTP1 antiserum (Alpha Diagnostic International, Cat. MTP11-A) and a mouse anti-mono- and polyubiquitinylated conjugates monoclonal antibody (Enzo Lifesciences, Cat. BML-PW8810) for detection of ferroportin and ubiquitin, respectively. Mouse monoclonal anti-rabbit IgG light chain (Abcam, Cat. ab99697) and anti-mouse IgG H&L (Abcam, Cat. ab6789) HRP conjugates were used as secondary antibodies.
A selection of eleven Fpn inhibitors were tested in this assay and compared to hepcidin.
J774 cells were incubated overnight with Fe(III)-NTA to induce expression of Fpn. […] Mock treated cells were harvested after 120 min (Control).

Hbb th3/+ mice = experiment: Improvement of anemia, ineffective erythropoiesis and iron overload in a mouse model of β-thalassemia intermedia; type: in vivo; settings: for Correction of anemia at day 20-48 (hemoglobin, difference to vehicle control) / Decrease in 58Fe spleen iron content / Decrease in blood reticulocyte counts / Decrease in leukocyte counts / Decrease in serum erythropoietin / Increase in blood erythrocyte counts / Increase in hematocrit / Prevention of liver 58Fe loading: 27 days (127) or 46 days (40); for Decrease in serum iron: Hbb th3/+ mice, % change to vehicle control
Experimental: The efficacy of Fpn inhibitors was investigated using a mouse model of transfusion-independent β-thalassemia. Mice with heterozygous deletion of β1 and β2 globin genes (called Hbb th3/+ mice) develop transfusion-independent anemia, ineffective erythropoiesis, splenomegaly and secondary iron overload in spleen, liver and kidneys. […] Hbb th3/+ mice were dosed twice daily with either compound at 20 or 60 mg/kg or with methylcellulose (10 ml/kg, Sigma, Cat. 274429) as a vehicle. Between both doses mice had access to drinking water supplemented with 1 mM ^58Fe(II)-sulfate (Vifor Pharma, Batch No. ROR 3096) and 10 mM ascorbic acid (Sigma, Cat. 795437) for 6 h. […] Water without ^58Fe(II)-Sulfate and ascorbic acid was provided during the remaining 18 h. Dosing of Fpn inhibitors or vehicle followed by exposure to iron-containing water was repeated for 20 to 46 days in individual experiments.
Additional hematologic parameters were measured in terminal blood using automated blood cell analyzer.
The inefficient erythropoiesis of Hbb th3/+ mice causes excessive proliferation of erythroid precursors in spleen, leading to splenomegaly.
Elevated erythropoietin levels in Hbb th3/+ mice hduced overexpression of erythroferrone, an erythroid regulator hormone known to suppress hepcidin (Kautz L. et al, Nat. Genet., 2014). […] Erythroferrone is produced by erythrocyte precursors proliferating massively in spleens of Hbb th3/+ mice as a consequence of extramedullar erythropoiesis.
Increased iron demand due to inefficient erythropoiesis and chronically low hepcidin levels in patients with thalassemia causes organ iron loading and associated morbidities, such as hepatocellular carcinoma and heart failure (Rivella S. Haematologica, 2015). Hbb th3/+ mice absorb excessive amounts of iron as a consequence of inadequately low hepcidin levels relative to the high iron content in liver, spleen and kidney and increased ferroportin expression in duodenum (Gardenghi S., Blood, 2007).
Additionally, reactive oxygen species (ROS) were detected in bone marrow cells using a fluorescent indicator, CM-H2DCFDA (Thermo Fisher Scientific, Cat. C6827).

## CC[C@H](C)[C@@H]1NC(=O)[C@@H](NC(=O)[C@@H](NC(=O)[C@@H]2CCCN2C(=O)[C@H](Cc2ccccc2)NC(=O)[C@H](Cc2c[nH]cn2)NC(=O)[C@@H](NC(=O)[C@@H](N)CC(=O)O)[C@@H](C)O)[C@@H](C)CC)CSSC[C@@H](C(=O)N[C@@H](CCCCN)C(=O)N[C@H](C(=O)O)[C@@H](C)O)NC(=O)[C@@H]2CSSC[C@@H]3NC(=O)[C@@H]4CSSC[C@H](NC(=O)[C@H](Cc5ccccc5)NC1=O)C(=O)N[C@@H](CSSC[C@H](NC(=O)[C@H](CCCCN)NC(=O)[C@H](CO)NC(=O)[C@H](CCCNC(=N)N)NC(=O)[C@H](Cc1c[nH]cn1)NC3=O)C(=O)NCC(=O)N[C@@H](CCSC)C(=O)N2)C(=O)NCC(=O)N4 [hepcidin, reference compound]
Ferroportin (Fpn)
  Fpn Degradation (120 min.): +
  Fpn Ubiquitination (10 min.): +

## O=C(NCc1ncccc1F)c1coc(CCNCCc2nc3ccccc3[nH]2)n1 [Example 127]
Hbb th3/+ mice; 20 mg/kg twice daily, 27 days (127)
  Decrease in RDW: 19%
Hbb th3/+ mice; 20 mg/kg twice daily
  Correction of anemia at day 20-48 (hemoglobin, difference to vehicle control): 12 g/L
  Decrease in 58Fe spleen iron content: 43%
  Decrease in blood reticulocyte counts: 16%
  Decrease in leukocyte counts: 46%
  Decrease in serum erythropoietin: 32%
  Increase in blood erythrocyte counts: 0%
  Increase in hematocrit: 3%
  Prevention of liver 58Fe loading: 39%
Hbb th3/+ mice; 20 mg/kg
  Decrease in serum iron: 68%
Hbb th3/+ mice; 60 mg/kg twice daily, 27 days (127)
  Decrease in RDW: 25%
Hbb th3/+ mice; 60 mg/kg twice daily
  Correction of anemia at day 20-48 (hemoglobin, difference to vehicle control): 20 g/L
  Decrease in 58Fe spleen iron content: 68%
  Decrease in blood reticulocyte counts: 61%
  Decrease in leukocyte counts: 66%
  Decrease in serum erythropoietin: 33%
  Increase in blood erythrocyte counts: 36%
  Increase in hematocrit: 20%
  Prevention of liver 58Fe loading: 59%
Hbb th3/+ mice; 60 mg/kg
  Decrease in serum iron: 81%
Hbb th3/+ mice; second value of the cell (60 mg/kg) twice daily, 27 days (127)
  Decreased in ROS in bone marrow erythrocytes: NA/75%

## O=C(NCc1ncccc1F)c1coc(CCNCc2nc3ccccc3[nH]2)n1 [Example 126]
Ferroportin (Fpn)
  Fpn Degradation (120 min.): +
  Fpn Ubiquitination (10 min.): +/−
